The values below are quoted from earlier work in patent publication US5508269A, “Aminoglycoside formulation for aerosolization” (priority 1994, dated 1996).

The conditions of this data set: aerosol administration, carbenicillin and gentamicin, twenty CF patients; Lancet 1981; cited from earlier work.

On to `CC1(C)S[C@@H]2[C@H](NC(=O)C(C(=O)O)c3ccccc3)C(=O)N2[C@H]1C(=O)O` (some centres unmarked) [carbenicillin], for which the “health of CF patients (in words)” value is recorded as “can improve the health of CF patients”.
With gentamicin, the “health of CF patients (in words)” value is reported as “can improve the health of CF patients”.
